≈ marks a conversion by molar mass, not a printed value.
What was measured:
Type in all cases: functional
Staphylococcus aureus [1] = assay: Antibacterial activity against Staphylococcus aureus ATCC 29213
Staphylococcus aureus [2] = assay: Antibacterial activity against methicillin, oxacillin, and tetracycline-resistant and vancomycin and linezolid-susceptible Staphylococcus aureus ATCC 27660 expressing mecA
Staphylococcus aureus [3] = assay: Antibacterial activity against methicillin, oxacillin, and tetracycline-resistant and vancomycin and linezolid-susceptible Staphylococcus aureus NRS100 COL expressing mecA
Staphylococcus aureus [4] = assay: Antibacterial activity against ciprofloxacin, gentamicin, oxacillin, penicillin, and linezolid-resistant Staphylococcus aureus NRS119 expressing mecA
Staphylococcus aureus [5] = assay: Antibacterial activity against ciprofloxacin, gentamicin, oxacillin, penicillin, and linezolid-resistant Staphylococcus aureus NRS120 expressing mecA
Staphylococcus aureus [6] = assay: Antibacterial activity against vancomycin-resistant Staphylococcus aureus VRS1
Staphylococcus aureus [7] = assay: Antibacterial activity against vancomycin-resistant Staphylococcus aureus VRS2
[8] = tested on: Staphylococcus epidermidis; assay: Antibacterial activity against Staphylococcus epidermidis ATCC 35547
[9] = tested on: Staphylococcus haemolyticus; assay: Antibacterial activity against Staphylococcus haemolyticus ATCC 29970
Bacillus cereus = assay: Antibacterial activity against Bacillus cereus ATCC 13061
Bacillus licheniformis = assay: Antibacterial activity against Bacillus licheniformis ATCC 12759
Enterococcus faecalis [10] = assay: Antibacterial activity against Enterococcus faecalis ATCC 29212
Enterococcus faecalis [11] = assay: Antibacterial activity against Enterococcus faecalis 201
Enterococcus faecalis [12] = assay: Antibacterial activity against vancomycin-resistant Enterococcus faecalis 99
Enterococcus faecium [13] = assay: Antibacterial activity against Vancomycin-susceptible Enterococcus faecium 119-39A
Enterococcus faecium [14] = assay: Antibacterial activity against vancomycin-resistant Enterococcus faecium 106
Enterococcus faecium [15] = assay: Antibacterial activity against vancomycin-resistant Enterococcus faecium C68

In the case of `Cn1ccc2ccc(-c3noc(-c4n[nH]cc4Cl)n3)cc21`, the MIC (Staphylococcus aureus [1]) was ≥ 128 µg/mL.
`Oc1ccc(-c2nc(-c3ccc4c(ccn4Cc4ccccc4)c3)no2)cc1` showed an MIC (Staphylococcus aureus [1]) of 128 µg/mL (≈ 348 µM).
In the case of `Oc1ccc(-c2nc(-c3ccc(Oc4ccc(C(F)(F)F)cc4)c(Cl)c3)no2)cc1`, the MIC (Staphylococcus aureus [1]) was ≥ 128 µg/mL.
With `c1cc2cc(-c3nc(-c4ccc5c(c4)OCO5)no3)ccc2[nH]1` the MIC (Staphylococcus aureus [1]) was ≥ 128 µg/mL.
`Oc1ccc(-c2nc(-c3ccc(Nc4ccc(C(F)(F)F)cc4)cc3)no2)cc1` was tested, and the MIC (Staphylococcus aureus [1]) was 32 µg/mL (≈ 80.5 µM).
Work on `Oc1ccc(-c2nc(-c3ccc(N4CCNCC4)cc3)no2)cc1` yielded an MIC (Staphylococcus aureus [1]) of 32 µg/mL (≈ 99.3 µM).
In the case of `O=C1OCc2cc(-c3noc(-c4ccc(O)cc4)n3)ccc21`, the MIC (Staphylococcus aureus [1]) was ≥ 128 µg/mL.
`[O-][S+](c1ccccc1)c1ccc(-c2noc(-c3ccc(O)cc3)n2)cc1` (stereo not given) was tested, and the MIC (Staphylococcus aureus [1]) was ≥ 128 µg/mL.
With `Oc1ccc(-c2nc(-c3ccc4c(c3)C=CCO4)no2)cc1` the MIC (Staphylococcus aureus [1]) was ≥ 128 µg/mL.
With `Oc1ccc(-c2nc(N3CCN(c4ccccc4)CC3)no2)cc1` the MIC (Staphylococcus aureus [1]) was ≥ 128 µg/mL.
With `Oc1ccc(-c2nc(-c3ccc(Nc4ccc(F)cc4)cc3)no2)cc1` the MIC (Staphylococcus aureus [1]) was ≥ 128 µg/mL.
For `CN1CCN(c2ccc(-c3noc(-c4ccc(O)cc4)n3)cc2)CC1`, the MIC (Staphylococcus aureus [1]) was ≥ 128 µg/mL.
`O=[N+]([O-])c1cc(Oc2ccc(C(F)(F)F)cc2)ccc1-c1noc(-c2ccc(O)cc2)n1` showed an MIC (Staphylococcus aureus [1]) of 4 µg/mL (≈ 9.02 µM).
In the case of `Clc1cc(Cl)cc(N2CCN(c3noc(-c4n[nH]cc4Cl)n3)CC2)c1`, the MIC (Staphylococcus aureus [1]) was ≥ 128 µg/mL.
For `Oc1ccc(-c2nc(-c3ccc(Oc4ccc(C(F)(F)F)cc4)c(O)c3)no2)cc1`, the MIC (Staphylococcus aureus [1]) was 2 µg/mL (≈ 4.83 µM), the MIC (Staphylococcus aureus [2]) was 16 µg/mL (≈ 38.6 µM) and the MIC (Staphylococcus aureus [3]) was 16 µg/mL (≈ 38.6 µM). It also gave an MIC (Staphylococcus aureus [4]) of 8 µg/mL (≈ 19.3 µM), an MIC (Staphylococcus aureus [5]) of 8 µg/mL (≈ 19.3 µM) and an MIC (Staphylococcus aureus [6]) of 8 µg/mL (≈ 19.3 µM). The MIC (Staphylococcus aureus [7]) was 8 µg/mL (≈ 19.3 µM), the MIC [8] was 16 µg/mL (≈ 38.6 µM) and the MIC [9] was 8 µg/mL (≈ 19.3 µM). The MIC (Bacillus cereus) was 8 µg/mL (≈ 19.3 µM), the MIC (Bacillus licheniformis) was 16 µg/mL (≈ 38.6 µM) and the MIC (Enterococcus faecalis [10]) was 8 µg/mL (≈ 19.3 µM). It also gave an MIC (Enterococcus faecalis [11]) of 8 µg/mL (≈ 19.3 µM), an MIC (Enterococcus faecalis [12]) of 16 µg/mL (≈ 38.6 µM) and an MIC (Enterococcus faecium [13]) of 8 µg/mL (≈ 19.3 µM). For the same compound, the MIC (Enterococcus faecium [14]) was 8 µg/mL (≈ 19.3 µM) and the MIC (Enterococcus faecium [15]) was 8 µg/mL (≈ 19.3 µM).
`C=CCOc1cc(-c2noc(-c3ccc(O)cc3)n2)ccc1Oc1ccc(C(F)(F)F)cc1` showed an MIC (Staphylococcus aureus [1]) of 8 µg/mL (≈ 17.6 µM).
`Clc1c[nH]nc1-c1nc(-c2ccc(N3CCNCC3)cc2)no1` was tested, and the MIC (Staphylococcus aureus [1]) was ≥ 128 µg/mL.
Work on `Oc1ccc(-c2nc(-c3ccc(Sc4cccc(Br)c4)cc3)no2)cc1` yielded an MIC (Staphylococcus aureus [1]) of 8 µg/mL (≈ 18.8 µM).
With `Cl.Nc1ccc(-c2noc(-c3ccc(O)cc3)n2)cc1` the MIC (Staphylococcus aureus [1]) was ≥ 256 µg/mL.
With `Oc1ccc(-c2nc(-c3ccc(Nc4ccccc4)cc3)no2)cc1` the MIC (Staphylococcus aureus [1]) was 4 µg/mL (≈ 12.1 µM).
`Oc1ccc(-c2nc(-c3ccc(Oc4ccc(C(F)(F)F)cc4)c(F)c3)no2)cc1` gave an MIC (Staphylococcus aureus [1]) of 8 µg/mL (≈ 19.2 µM).
Compound `Cn1ccc2ccc(-c3noc(-c4ccc(O)cc4)n3)cc21` has an MIC (Staphylococcus aureus [1]) of 8 µg/mL (≈ 27.5 µM).
With `Clc1c[nH]nc1-c1nc(-c2ccc3c(c2)OCO3)no1` the MIC (Staphylococcus aureus [1]) was ≥ 128 µg/mL.
`O=S(=O)(c1ccccc1)c1ccc(-c2noc(-c3ccc(O)cc3)n2)cc1` was tested, and the MIC (Staphylococcus aureus [1]) was ≥ 128 µg/mL.
For `O=C(c1ccccc1)c1ccc(-c2noc(-c3ccc(O)cc3)n2)cc1`, the MIC (Staphylococcus aureus [1]) was ≥ 128 µg/mL.
With `O=C1OCc2cc(-c3noc(-c4n[nH]cc4Cl)n3)ccc21` the MIC (Staphylococcus aureus [1]) was ≥ 128 µg/mL.
`Oc1ccc(-c2nc(-c3ccc(Sc4ccc(C(F)(F)F)cc4)cc3)no2)cc1` showed an MIC (Staphylococcus aureus [1]) of 2 µg/mL (≈ 4.83 µM), an MIC (Staphylococcus aureus [2]) of 2 µg/mL (≈ 4.83 µM) and an MIC (Staphylococcus aureus [3]) of 2 µg/mL (≈ 4.83 µM). For the same compound, the MIC (Staphylococcus aureus [4]) was 2 µg/mL (≈ 4.83 µM), the MIC (Staphylococcus aureus [5]) was 2 µg/mL (≈ 4.83 µM) and the MIC (Staphylococcus aureus [6]) was 2 µg/mL (≈ 4.83 µM). It also gave an MIC (Staphylococcus aureus [7]) of 2 µg/mL (≈ 4.83 µM), an MIC [8] of 2 µg/mL (≈ 4.83 µM) and an MIC [9] of 2 µg/mL (≈ 4.83 µM). The MIC (Bacillus cereus) was 8 µg/mL (≈ 19.3 µM), the MIC (Bacillus licheniformis) was 1 µg/mL (≈ 2.41 µM) and the MIC (Enterococcus faecalis [10]) was 2 µg/mL (≈ 4.83 µM). For the same compound, the MIC (Enterococcus faecalis [11]) was 2 µg/mL (≈ 4.83 µM), the MIC (Enterococcus faecalis [12]) was 2 µg/mL (≈ 4.83 µM) and the MIC (Enterococcus faecium [13]) was 2 µg/mL (≈ 4.83 µM). For the same compound, the MIC (Enterococcus faecium [14]) was 2 µg/mL (≈ 4.83 µM) and the MIC (Enterococcus faecium [15]) was 2 µg/mL (≈ 4.83 µM).
With `COc1ccc(-c2noc(-c3ccc(O)cc3)n2)cc1OC` the MIC (Staphylococcus aureus [1]) was ≥ 500 µg/mL.

Source: ChEMBL document CHEMBL3627682, “Exploration of the structure-activity relationship of 1,2,4-oxadiazole antibiotics” (2015)
